Experimental data as given in patent publication US10821078B2, “Nanostructure enhanced targeting (NSET) of inflammatory cells” (Northwestern University, priority 2016, dated 2020).
Read-outs that look alike come from different tables or passages of the source.

Legend:
[1] = removal from circulation in the liver; cited from earlier work
[2] = Organ-level biodistribution of ICG-loaded nanostructures by IVIS NIR fluorescence imaging; type: in vivo, mouse; conditions: 24 h after I.V. injection, C57BL/6 mice
Description: Nanomaterials have been widely used to deliver therapeutic agents in vivo, and their tissue distribution can either limit or enhance such applications. ICG-loaded MC, PS and FM were therefore assembled at a 33:1 molar ratio of copolymer:dye, and their biodistributions were compared to control injections of free form ICG and PBS in naïve C57BL/6 mice. Liver, spleen, kidneys, lung and heart were harvested and investigated with an IVIS optical imaging system. Following I.V. injection, ICG usually has a half-life of less than 10 minutes primarily due to removal from circulation in the liver.
The ICG-loaded MC, PS and FM were prepared with the optimal molar ratio of PEG-bl-PPS:ICG (33:1) and suspended in PBS. Free ICG (50 μg/mL in PBS solution) served as a control. C57BL/6 mice (n=6) were injected intravenously with 150 μl of free ICG, MC, PS and FM (7.5 μg of loaded ICG in each sample). At different time points (1 h, 24 h, and 48 h post-injection), whole-body NIR fluorescence imaging was performed using an IVIS Lumina (Center for Advanced Molecular Imaging, Northwestern University) with λexc=745 nm, λem=810 nm, exposure time=2 s and f/stop=2. For organ NIR fluorescence imaging, animals were euthanized by carbon dioxide and liver, spleen, kidney, heart, and lung were harvested in petri dishes and imaged by the IVIS Lumina with the same parameters as previous.

[3] = test system: macrophages (CD11b+F4/80+); conditions: mouse, in vivo
Description: Multi-color flow cytometry was performed to evaluate the uptake of NS of the present invention within cells of the innate and adaptive immune system. Mice were administered DyLight 650-labeled PS, MC and FM by tail vein injection. After different time points (1 h, 24 h, and 48 h), spleen, LN, liver, kidneys, and blood were collected and prepared into single cell suspensions for analysis (gating strategies shown in FIG. 11). For all organs evaluated, NS were predominantly taken up by phagocytic cells in the MPS (FIG. 3, FIG. 12).
C57BL/6 female mice (n=6-8), were injected intravenously with 150 μl of MC, PS, and FM with block copolymer concentration of 15 mg/mL. At different time points (1 h, 24 h, and 48 h post-injection), mice were anesthetized by intraperitoneal (i.p.) injection of a mixture of Ketamine/Xylazine followed by exsanguination. Blood was collected by retro-orbital puncture with BD Microtainer tubes and dipotassium EDTA (BD Biosciences). Serum was separated by centrifugation at 3000 rpm at 4° C. for 25 min. Fluorescence intensity of each nanostructure was normalized by diluting NS solutions in PBS and measuring the fluorescence using a spectrophotometer. The fluorescence of blood serum was measured with an excitation of 655 nm and the emission of 675 nm and correlated with the normalized standard curve for each DyLight 650-labeled NS. To prepare white blood cell suspensions, blood cells were washed twice with 10 ml PBS and treated 3× with ammonium-chloride-potassium (ACK) lysis buffer (Invivogen) to eliminate red blood cells. Liver, spleen, LN (popliteal, inguinal, axillary and brachial), and kidneys were harvested, gently dissociated and incubated in a 12-well plate with each well of 2 ml Collagenase D (2 mg/mL) for 45 min at 37° C. and 5% CO2. Single-cell suspensions were prepared by mechanical dissociation and passing through a 70 μm cell strainer. Anti-mouse CD16/CD32 was used to block FcRs and Zombie Aqua fixable viability dye was used to determine live/dead cells. For flow cytometric analysis, cells were stained using cocktails of fluorophore-conjugated anti-mouse antibodies: panel 1: CD45-FITC, CD3-APC/Cy7, CD4-PE, CD8α-PE/Cy7, NK1.1-PerCP-Cy5.5, CD19-Pacific Blue; panel 2: I-A/I-E-FITC, CD11c-Pacific Blue, CD8α-PE-Cy7, CD11b-PerCP-Cy5.5, CD45RB/B220-PE, Gr-1-APC-Cy7; and panel 3: F4/80-FITC, CD11c-Pacific Blue, CD11b-PerCP-Cy5.5, Ly6C-APC/Cy7, Ly6G-PE/Cy7. After washes, cells were fixed by IC cell fixation buffer (Biosciences). Flow cytometry was performed with FACSDiva on a LSRII flow cytometer (BD Biosciences) and data were analyzed with FlowJo software.

## CC1(C)C(/C=C/C=C/C=C/C=C2\N(CCCCS(=O)(=O)O)c3ccc4ccccc4c3C2(C)C)=[N+](CCCCS(=O)(=O)[O-])c2ccc3ccccc3c21 [ICG, indocyanine green]
[1]
  half-life following I.V. injection: less than 10 minutes
[2]
  ICG fluorescence in organs: no observable fluorescence

## PEG17-bl-PPS30
[3]
  decrease in uptake by liver macrophages on switching from MC to PS morphology: over 50%
  percentage of macrophages nanostructure positive: 40%
[3]; iv
  percentage of macrophages nanostructure positive: 30%-40%

## PEG44-bl-PPS45 [FM]
[3]
  percentage of macrophages nanostructure positive: 25%

## PEG45-bl-PPS20 [MC]
[3]
  percentage of macrophages nanostructure positive: over 90%
